A short description of data set [1]: AUC in BALB/c mouse at 20 mg/kg, po measured upto 24 hrs by LC-MS/MS analysis. On the set-up: dose 20 mg/kg, time < 24 hr, route oral. The data set is classed as ADME, organism-based. As to conditions: in vivo; call rule not given here.
Data set [2] can be described thus: Half life in BALB/c mouse at 20 mg/kg, po measured upto 24 hrs by LC-MS/MS analysis. As to conditions: in vivo. In kind it is ADME, organism-based.
The nature of data set [3]: Toxicity in Harlan Foxn1 nude mouse xenografted with rat RIE cells transfected with KIF5B/RET at 10 mg/kg, po qd for 14 days. In kind it is organism-based. The note with it: in vivo, 336 h.
Data set [4] can be described thus: Toxicity in Harlan Foxn1 nude mouse xenografted with rat RIE cells transfected with KIF5B/RET assessed as reddish mottled appearance of lungs at 30 to 60 mg/kg, po qd for 14 days. As to conditions: in vivo, 336 h. The data set is classed as organism-based.
The nature of data set [5]: Toxicity in Harlan Foxn1 nude mouse xenografted with rat RIE cells transfected with KIF5B/RET assessed as signs of hemorrhaging at 30 to 60 mg/kg, po qd for 14 days. In kind it is organism-based. As to conditions: in vivo, 336 h.
The nature of data set [6]: Toxicity in NSG mouse xenografted with human LC2/ad cells assessed as necropsy in kidneys at 10 mg/kg, po qd for 21 days measured following drug dosing termination on day 24. The data set is classed as organism-based. As to conditions: in vivo, 504 h. On the technique in general: In xenograft studies the graft and the host belong to different species.
Data set [7] can be described thus: Oral bioavailability in BALB/c mouse at 20 mg/kg measured upto 24 hrs by LC-MS/MS analysis. In kind it is ADME, organism-based. As to conditions: in vivo.
A short description of data set [8]: Ratio of Cmax in BALB/c mouse brain to plasma at 20 mg/kg, po measured upto 24 hrs by LC-MS/MS analysis. As to conditions: brain and plasma. In kind it is ADME, organism-based.
Data set [9] in a line: Toxicity in NSG mouse xenografted with human LC2/ad cells assessed as body weight loss at 10 mg/kg, po qd for 21 days measured following drug dosing termination on day 24. The data set is classed as organism-based. The note with it: in vivo, 504 h.
A short description of data set [10]: Drug uptake in plasma of Harlan Foxn1 nude mouse xenografted with rat RIE cells transfected with KIF5B/RET at 1 to 10 mg/kg, po qd for 10 days by LC-MS/MS analysis. In kind it is ADME, organism-based. As to conditions: in vivo, 240 h.
Data set [11] in a line: Toxicity in Harlan Foxn1 nude mouse xenografted with rat RIE cells transfected with KIF5B/RET assessed as reduction in body weight at 30 to 60 mg/kg, po qd for 14 days. The data set is classed as organism-based. As to conditions: in vivo, 336 h.
The nature of data set [12]: Cmax in BALB/c mouse at 20 mg/kg, po measured upto 24 hrs by LC-MS/MS analysis. The data set is classed as ADME, organism-based. On the set-up: dose 20 mg/kg, route oral. The note with it: in vivo.
Data set [13] is described as follows: Ratio of AUC in BALB/c mouse brain to plasma at 20 mg/kg, po measured upto 24 hrs by LC-MS/MS analysis. In kind it is ADME, organism-based. As to conditions: brain and plasma.
Data set [14] in a line: Toxicity in Harlan Foxn1 nude mouse xenografted with rat RIE cells transfected with KIF5B/RET at 1 to 10 mg/kg, po qd for 10 days. In kind it is organism-based. The note with it: in vivo, 240 h.
Data set [15] can be described thus: Toxicity in Harlan Foxn1 nude mouse xenografted with rat RIE cells transfected with KIF5B/RET assessed as lung collapse at 30 to 60 mg/kg, po qd for 14 days. In kind it is organism-based. The note with it: in vivo, 336 h.

As to `COc1ccc(-c2cnn3c(N)c(-c4ccccc4)c(NC4CC(C)(C)N(C)C(C)(C)C4)nc23)cc1OC.Cl`, the AUC (usually the area under the concentration-time curve, a measure of exposure) at 24 h in data set [1] was 12 µM·h. Also, the half-life – broadly, how long it takes for the measured level to halve – in data set [2] is 11 h. The Activity result in data set [3] is listed as “Non-Toxic”; in data set [4], “Toxic”; in [5] it was “Toxic”; in data set [6] it was “Toxic”; in data set [9], “Toxic”; in data set [11], “Toxic”. Besides, the Activity result in data set [14] is on record as “Non-Toxic”; in [15], “Toxic”. Also, the bioavailability (in general, the share of a dose that reaches the circulation, judged against a reference dose that is usually intravenous) in data set [7] is 94%. Further, the results for the partition ratio (Kp) at 24 h in [8] and in data set [13] were 0.81 and 0.94, respectively. Also, in [10], the Drug uptake entry is on record as “Active”. For the same compound, the Cmax (in general, the peak of the concentration-time curve) in data set [12] worked out at 0.73 µM.

The values are drawn from ChEMBL document CHEMBL4602715, “Efficacy and Tolerability of Pyrazolo[1,5-a]pyrimidine RET Kinase Inhibitors for the Treatment of Lung Adenocarcinoma” (ACS Med Chem Lett, 2020).
